Converted amounts (≈) assume the structure as drawn.

The subject of series [1] is C. albicans 4251. Briefly: Broth microdilution MIC/MFC (CLSI M27-A4). To be noted: Candida albicans; C. albicans 4251 (Flz sensitive), 37° C., 24 h; read-out: Median MIC. The class given is cell-based, Candida albicans. Here is the method:
(§1) In this work, nine strains of C. albicans procured from Charlotte Maxeke Johannesburg Academic Hospital under ethical clearance number M000402 were employed (Table 1). All the C. albicans strains were preserved at −70° C. deep freezer in 50% (v/v) anhydrous glycerol (Sigma-Aldrich St. Louis, MO, U.S.A.). For conducting experiments, cultures were revived in Sabouraud Dextrose broth (SDB; Merck, Germany) at 37° C. and 120 rpm for 24 h. Additionally, the RPMI 1640 medium and MOPS (Sigma-Aldrich, USA) were prepared as described by the Clinical and Laboratory Standards Institute (CLSI).
(§2) The activity of C1 against Candida species (n=9) was first estimated in terms of minimum inhibitory concentration (MIC) and minimum fungicidal concentration (MFC). […] Briefly, stock solutions of Flz (used as reference; Sigma-Aldrich St. Louis, MO, U.S.A.) and the synthesized compound was prepared in 1% dimethyl sulfoxide (DMSO; Sigma-Aldrich St. Louis, MO, U.S.A.) and the test concentrations were formulated in RPMI 1640-MOPS medium. A two-fold dilution of the compound (1250-0.61 μg/mL) and reference drug (128-0.062 μg/mL) was prepared in 96 well plates which were then seeded with C. albicans inoculum (1×10^6 cells/mL) and incubated at 37° C. for 24 h. In every set of experiments, sterility control, 1% DMSO as negative control and growth control were included. Growth was quantified by reading the optical density at 620 nm in a UV-1800 SHIMADZU spectrophotometer (Shimadzu Corporation, Japan). The MIC was determined as the lowest concentration that inhibited the growth of Candida strains. To determine MFC, each well without visible growth was subcultured onto the SDA plates for 24 hours at 37° C. The lowest concentration killing ≥99.9% of Candida was taken as the MFC value of the test compound.
In general terms: Broth dilution looks for growth in wells or tubes with falling amounts of substance.

Series [2] deals with C. albicans 4180. Briefly: Broth microdilution MIC/MFC (CLSI M27-A4). The class given is cell-based, Candida albicans. To be noted: Candida albicans; C. albicans 4180 (Flz sensitive), 37° C., 24 h; read-out: Median MIC. On the procedure:
as §1, §2

The subject of series [3] is C. albicans SC5314. Briefly: Broth microdilution MIC/MFC (CLSI M27-A4). The class given is cell-based, Candida albicans. Particulars: Candida albicans; C. albicans SC5314 (control), 37° C., 24 h; read-out: Median MIC. On the procedure:
as §1, §2

Series [4] deals with C. albicans 4175. Briefly: Broth microdilution MIC/MFC (CLSI M27-A4). It is filed as cell-based, Candida albicans. Particulars: Candida albicans; C. albicans 4175 (Flz sensitive), 37° C., 24 h; read-out: Median MIC. On the procedure:
as §1, §2

Series [5] has as its system C. albicans 4085. Briefly: Broth microdilution MIC/MFC (CLSI M27-A4). The class given is cell-based, Candida albicans. Particulars: Candida albicans; C. albicans 4085 (Flz resistant), 37° C., 24 h; read-out: Median MIC. Here is the method: as §1, §2
Series [6] deals with C. albicans 5112. Put plainly: Broth microdilution MIC/MFC (CLSI M27-A4). Particulars: Candida albicans; C. albicans 5112 (Flz resistant), 37° C., 24 h; read-out: Median MIC. It is filed as cell-based, Candida albicans. Here is the method: as §1, §2
Series [7] deals with C. albicans 4106. Briefly: Broth microdilution MIC/MFC (CLSI M27-A4). It is filed as cell-based, Candida albicans. To be noted: Candida albicans; C. albicans 4106 (Flz resistant), 37° C., 24 h; read-out: Median MIC. Here is the method: as §1, §2
The test system of series [8] is C. albicans 4554. Briefly: Broth microdilution MIC/MFC (CLSI M27-A4). It is filed as cell-based, Candida albicans. Particulars: Candida albicans; C. albicans 4554 (Flz sensitive), 37° C., 24 h; read-out: Median MIC. Here is the method: as §1, §2
Series [9] concerns C. albicans 4324. Put plainly: Broth microdilution MIC/MFC (CLSI M27-A4). It is filed as cell-based, Candida albicans. Particulars: Candida albicans; C. albicans 4324 (Flz resistant), 37° C., 24 h; read-out: Median MIC. Here is the method: as §1, §2
The subject of series [10] is C. albicans 4251. Briefly: Cell cycle analysis (Muse cell analyser). The class given is cell-based, Candida albicans. Particulars: 10 mM H2O2 positive control; stated for C. albicans without naming a strain. On the procedure:
The effect of C1 on the cell cycle of C. albicans 4251 and C. albicans 5112 was determined using Cell Cycle kit MCH100106 in a Guava® Muse® Cell Analyser according to the manufacturer's instructions. The cells of the C. albicans (1×10^6 cells/mL) were exposed to C1 for 4 h at different concentrations (0.5×MIC and 1×MIC). Each sample was rinsed with fresh PBS after exposure, and the pellet was fixed in 1 mL of 70% ice-cold ethanol (Sigma Aldrich Co., USA). The Cell Cycle assay was prepared by mixing the 100 μL of Luminex® Cell Cycle dye and 100 μL of the prewashed fixed cells and incubated in the dark for 30 minutes at room temperature. All samples were analysed by a Guava® Muse® Cell Analyser (Luminex® A DiaSorin Company, USA). During the experiment, both the negative (without treatment) and positive control (10 mM H2O2 treated) were used.

The subject of series [11] is C. albicans 4251. Briefly: Cell count and viability assay (Muse cell analyser). It is filed as cell-based, Candida albicans. To be noted: C. albicans 4251, hydrogen peroxide 10 mM 1:1 with inoculum, 24 h; untreated 90.9%. On the procedure: (§3) Quantification of Live/Dead C. albicans cells in response to C1 was carried out. The actual count of viable and dead cells of C. albicans by treatment of C1 was monitored by Cell Count and Viability assay kit. An inoculum (1×10^6 cells/mL) of both Flz sensitive (C. albicans 4251) and resistant (C. albicans 5112) C. albicans strains was prepared followed by treatment with various concentrations of C1 (0.5×MIC, 1×MIC and MFC) for 24 h at 37° C. and 150 rpm. For the negative control, only inoculum treated with 1% DMSO was used and for the positive control, hydrogen peroxide (10 mM) was used in a 1:1 ratio with the inoculum. Following incubation, the cells were then washed in PBS and centrifuged at 4000 rpm for 5 minutes at 4° C. and the final pellet was resuspended in PBS. The Cell Count and Viability assay samples were prepared by mixing 190 μL of Luminex Cell Viability Dilution Buffer and 10 μL of the sample in a 1.5 mL Eppendorf tube and incubated in the dark for 5 min at room temperature. All samples were analysed by a Guava® Muse® Cell Analyser (Luminex A DiaSorin Company, USA).

Series [12] has as its system C. albicans 5112. The description is as above. It is filed as cell-based, Candida albicans. Particulars: C. albicans 5112, hydrogen peroxide 10 mM 1:1 with inoculum, 24 h; untreated 86.8%. On the procedure: as §3
The test system of series [13] is C. albicans 4251. Briefly: JC-10 mitochondrial membrane potential assay. It is filed as cell-based, Candida albicans. Particulars: C. albicans 4251, H2O2 treated positive control; negative control 2.65. Here is the method: (§4) To examine the effect of C1 on the induction of cellular apoptosis in C. albicans cells, crucial apoptotic markers were observed. For this purpose, C. albicans 4251 and C. albicans 5112 cells were subjected to protoplast preparation by utilizing a method described previously by Srivastava et al. in 2020 through their research study. […] Later on, the cells were washed and incubated for 10 min at room temperature in protoplast buffer-1 (1M sorbitol, 0.05M tris base, 0.01M MgCl2, 0.03M DTT, pH 7.4). The cells were spun at 1500 rpm for 5 min and the pellet was resuspended in protoplast buffer-2 (1M sorbitol, 0.05M tris base, 0.01M MgCl2, 0.001M DTT, pH 7.4) supplemented with […] enzyme (1 μg/mL) and incubated for 1 h at room temperature. Afterwards, the cell suspension was again centrifuged, and the pellet was resuspended and incubated for 20 min at room temperature in protoplast buffer-3 (1M sorbitol, 0.05M tris base, 0.01M MgCl2, pH 7.4). A final washing (1500 rpm for 5 min) was given to the cells and the pellet consisting of C. albicans protoplasts was resuspended in fresh PBS and was stored at 4° C. until further use. Measurement of mitochondrial membrane potential in C. albicans was carried out and the potential of C1 in destabilising mitochondrial membrane potential (Δψm) in C. albicans was established by JC-10 mitochondrial membrane potential assay kit (Abeam, Cambridge, UK). The experiment was performed according to manufacturer instructions. 90 μL of prepared protoplast of C. albicans 4251 and C. albicans 5112 was added to a 96-well microplate (with black walls and clear bottom), followed by the addition of 50 μL/well of JC-10 dye-loading solution. The microplate was incubated for 1 hour at 37° C. in the dark. This was followed by the addition of 50 μL/well of assay buffer B. The microplate was then immediately centrifuged at 800 rpm for 2 minutes. The fluorescence intensity was monitored at an Ex/Em=490/530 nm (present in apoptotic cells, monomeric form and green fluorescence; represented as X) and 540/590 nm (present in live cells, dye aggregates and red fluorescence; represented as Y) using a SpectraMax® ID3 Multimode Plate Reader (Molecular Devices, LLC., USA). The ratio between the aggregate and monomeric forms was measured to find the change in mitochondrial membrane potential. The mitochondrial membrane depolarization is indicated by decreasing ratio values.

For series [14], the system named is C. albicans 5112. Briefly: JC-10 mitochondrial membrane potential assay. The class given is cell-based, Candida albicans. Particulars: C. albicans 5112, H2O2 treated positive control; negative control 2.92. On the procedure: as §4

On to `OC(Cn1cncn1)(Cn1cncn1)c1ccc(F)cc1F` [Flz, fluconazole, reference compound], for which the minimum inhibitory concentration (MIC) (in general, the least concentration at which growth counts as inhibited) in series [1] was 0.5 µg/mL (≈ 1.63 µM); in [2], 0.25 µg/mL (≈ 0.816 µM); in series [3] it was 0.25 µg/mL (≈ 0.816 µM); in series [4], 0.25 µg/mL (≈ 0.816 µM); in [5], 16 µg/mL (≈ 52.2 µM); in series [6] it was 64 µg/mL (≈ 209 µM). Further, the minimal inhibitory concentration (MIC) in series [7] was determined as 32 µg/mL (≈ 104 µM); in series [8], 0.25 µg/mL (≈ 0.816 µM); in series [9], 32 µg/mL (≈ 104 µM).

Regarding `Oc1ccc(Br)cc1/C=N/c1ccc2c(c1)OCCO2` [L, (E)-4-bromo-2-{[(2,3-dihydrobenzo[b][1,4]dioxin-6-yl)imino]methyl}phenol], the melting point – broadly, the temperature, or range, at which the solid turns liquid – amounted to 119 °C.

For the compound `OO` [Complex H2O2, hydrogen peroxide, reference compound], the “impact on the cell cycle” value in [10] is “not much impact”. Besides, the live cells in series [11] was 19.9%; in series [12] it was 26.1%. Besides, the “average fluorescence ratio JC-10 aggregates/JC-10 monomers” value worked out at 2.5 in [13] and 2.75 in [14].
